This passage reports ring closure, yield of all isomers results from US8399473.

The conditions of the data set: from C=Cc1ccc(N2C(=O)N=C(NC3CCCCC3)C23CCN(Cc2ccc(I)cc2)CC3)cc1; cc_pd bond; 2 steps.

Molecules are shown by their SMILES.

On to `O=C1N=C(NC2CCCCC2)C23CCN(CC2)Cc2ccc(cc2)CCc2ccc(cc2)N13`, for which the ring closure, yield of all isomers came to 2.3%.
